Patent US9127018B2, “Solid forms of ortataxel” (Indena S.p.A., priority 2008, dated 2015)

Experiment: physical and chemical stability of the solid form
Type: physicochemical
Conditions: solid form prepared with traces of an organic acid (citric acid); storage conditions not given

- chemical and physical stability: at least 36 months
Compound: CC(=O)O[C@H]1C(=O)[C@@]2(C)[C@H]([C@H](OC(=O)c3ccccc3)[C@]34OC(=O)O[C@H]3[C@H](OC(=O)[C@H](O)[C@H](CC(C)C)NC(=O)OC(C)(C)C)C(C)=C1C4(C)C)[C@]1(OC(C)=O)CO[C@@H]1C[C@@H]2O [Form A, 13-(N-Boc-β-isobutylserinyl)-14-β-hydroxybaccatin III 1, 14-carbonate]
